Reference: ChEMBL document CHEMBL1142922, “Amphipathic benzoic acid derivatives: synthesis and binding in the hydrophobic tunnel of the zinc deacetylase LpxC” (Bioorg Med Chem, 2007)
Calls of active or inactive are those of the source. No cut-off for these calls is given here.

Assays:
[1] = molecular target: T1, UDP-3-O-acyl-N-acetylglucosamine deacetylase (Aquifex aeolicus (strain VF5), UniProt O67648); test: (§1) Binding affinity to Aquifex aeolicus LpxC by isothermal titration calorimetry
T1 sequence (O67648 whole entry): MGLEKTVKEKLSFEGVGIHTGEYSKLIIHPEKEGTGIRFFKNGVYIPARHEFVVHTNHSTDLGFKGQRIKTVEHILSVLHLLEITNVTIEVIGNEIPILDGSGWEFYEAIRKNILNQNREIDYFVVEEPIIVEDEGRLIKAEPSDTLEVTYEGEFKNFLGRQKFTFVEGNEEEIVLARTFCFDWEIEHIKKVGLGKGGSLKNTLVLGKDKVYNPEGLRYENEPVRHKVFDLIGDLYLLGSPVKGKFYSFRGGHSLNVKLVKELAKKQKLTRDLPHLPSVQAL

[2] = molecular target: T2, UDP-3-O-acyl-N-acetylglucosamine deacetylase (Aquifex aeolicus (strain VF5)) (UniProt O67648); test: as §1
T2 sequence (whole entry): T1 sequence (O67648 whole entry)

SMILES	Kd [1] [µM]	Activity [2]
CCCCCCCOc1ccc(CC(=O)O)cc1	2.6	
CCCCCCCOc1ccc(C(=O)O)cc1OC	8.6	
CCCCCCCOc1ccc(C(=O)O)cc1Cl	30	
CCCCCCCOc1ccc(C(=O)O)cc1[N+](=O)[O-]	6.4	
CCCCCC/C=C/c1ccc(C(=O)O)cc1	6.2	
CCCCCCCOc1ccc(C(=O)O)cc1	2.3	
CCCc1ccc(-c2ccc(C(=O)O)cc2)cc1		inactive
COc1ccc(C(=O)O)cc1		inactive
CCCCCCCc1ccc(C(=O)O)cc1	35	
CCCCCCCOc1ccc(C(=O)O)cc1O	9	
